In BigSolDB 2.1:

CN(Cc1ccccc1)CN1C(=O)C(=NNC(=O)c2ccccc2OCc2ccccc2)c2ccccc21
Details	solubility (mole fraction)
in PEG-400, 298.15 K	0.00711
in PEG-400, 303.15 K	0.00781
in PEG-400, 308.15 K	0.00887
in PEG-400, 313.15 K	0.00992
in PEG-400, 318.15 K	0.0114

solubility (mole fraction)
Details	in ethanol	in ethylene glycol	in isopropanol	in n-butanol	in propylene glycol	in sec-butanol	in transcutol	in water
298.15 K	0.000474	0.000304	0.000414	0.000759	0.000362	0.000808	0.00394	1.11e-06
303.15 K	0.000583	0.000416	0.00053	0.00091	0.000488	0.000968	0.00453	1.5e-06
308.15 K	0.000715	0.000536	0.000658	0.00106	0.000624	0.00113	0.00533	1.93e-06
313.15 K	0.000832	0.000671	0.000802	0.00122	0.000782	0.00129	0.00618	2.46e-06
318.15 K	0.000969	0.000809	0.000941	0.00138	0.000952	0.00145	0.00714	3e-06
